Measured values published in ChEMBL document CHEMBL2073815, “Induction of hepatic phase II drug-metabolizing enzymes by 1,7-phenanthroline in rats is accompanied by induction of MRP3” (Drug Metab Dispos, 2003).

Assays:
Type in all cases: functional, organism-based
[1] = molecular target: T1, ATP-binding cassette sub-family C member 3 (Rattus norvegicus, UniProt O88563); assay: TP_TRANSPORTER: quantitative PCR in vivo, […] of male Sprague-Dawley rat
[2] = molecular target: T1, ATP-binding cassette sub-family C member 3; assay: (§1) TP_TRANSPORTER: quantitative PCR in vivo, liver of male Sprague-Dawley rat
[3] = molecular target: T2, Solute carrier organic anion transporter family member 1A4 (Rattus norvegicus, UniProt O35913); assay: as §1
T2 sequence (O35913 whole entry): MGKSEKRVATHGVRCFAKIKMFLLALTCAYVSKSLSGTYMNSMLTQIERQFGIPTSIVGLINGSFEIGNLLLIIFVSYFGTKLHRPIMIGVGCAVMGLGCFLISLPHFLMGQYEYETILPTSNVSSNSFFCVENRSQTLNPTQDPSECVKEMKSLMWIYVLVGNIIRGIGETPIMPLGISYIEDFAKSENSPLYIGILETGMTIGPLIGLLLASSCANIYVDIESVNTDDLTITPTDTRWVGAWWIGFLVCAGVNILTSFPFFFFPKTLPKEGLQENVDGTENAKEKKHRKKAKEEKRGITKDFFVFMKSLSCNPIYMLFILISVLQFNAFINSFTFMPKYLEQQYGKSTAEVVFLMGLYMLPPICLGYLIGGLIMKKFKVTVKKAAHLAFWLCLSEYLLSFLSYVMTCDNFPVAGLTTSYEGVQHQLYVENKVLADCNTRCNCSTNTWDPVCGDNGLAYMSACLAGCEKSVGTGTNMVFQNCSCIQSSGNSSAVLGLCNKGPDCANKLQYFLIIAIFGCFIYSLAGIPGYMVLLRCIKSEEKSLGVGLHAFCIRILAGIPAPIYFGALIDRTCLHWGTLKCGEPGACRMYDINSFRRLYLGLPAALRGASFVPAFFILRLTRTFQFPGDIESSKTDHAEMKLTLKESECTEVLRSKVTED

Measured: Activity

T1 sequence (O88563 whole entry): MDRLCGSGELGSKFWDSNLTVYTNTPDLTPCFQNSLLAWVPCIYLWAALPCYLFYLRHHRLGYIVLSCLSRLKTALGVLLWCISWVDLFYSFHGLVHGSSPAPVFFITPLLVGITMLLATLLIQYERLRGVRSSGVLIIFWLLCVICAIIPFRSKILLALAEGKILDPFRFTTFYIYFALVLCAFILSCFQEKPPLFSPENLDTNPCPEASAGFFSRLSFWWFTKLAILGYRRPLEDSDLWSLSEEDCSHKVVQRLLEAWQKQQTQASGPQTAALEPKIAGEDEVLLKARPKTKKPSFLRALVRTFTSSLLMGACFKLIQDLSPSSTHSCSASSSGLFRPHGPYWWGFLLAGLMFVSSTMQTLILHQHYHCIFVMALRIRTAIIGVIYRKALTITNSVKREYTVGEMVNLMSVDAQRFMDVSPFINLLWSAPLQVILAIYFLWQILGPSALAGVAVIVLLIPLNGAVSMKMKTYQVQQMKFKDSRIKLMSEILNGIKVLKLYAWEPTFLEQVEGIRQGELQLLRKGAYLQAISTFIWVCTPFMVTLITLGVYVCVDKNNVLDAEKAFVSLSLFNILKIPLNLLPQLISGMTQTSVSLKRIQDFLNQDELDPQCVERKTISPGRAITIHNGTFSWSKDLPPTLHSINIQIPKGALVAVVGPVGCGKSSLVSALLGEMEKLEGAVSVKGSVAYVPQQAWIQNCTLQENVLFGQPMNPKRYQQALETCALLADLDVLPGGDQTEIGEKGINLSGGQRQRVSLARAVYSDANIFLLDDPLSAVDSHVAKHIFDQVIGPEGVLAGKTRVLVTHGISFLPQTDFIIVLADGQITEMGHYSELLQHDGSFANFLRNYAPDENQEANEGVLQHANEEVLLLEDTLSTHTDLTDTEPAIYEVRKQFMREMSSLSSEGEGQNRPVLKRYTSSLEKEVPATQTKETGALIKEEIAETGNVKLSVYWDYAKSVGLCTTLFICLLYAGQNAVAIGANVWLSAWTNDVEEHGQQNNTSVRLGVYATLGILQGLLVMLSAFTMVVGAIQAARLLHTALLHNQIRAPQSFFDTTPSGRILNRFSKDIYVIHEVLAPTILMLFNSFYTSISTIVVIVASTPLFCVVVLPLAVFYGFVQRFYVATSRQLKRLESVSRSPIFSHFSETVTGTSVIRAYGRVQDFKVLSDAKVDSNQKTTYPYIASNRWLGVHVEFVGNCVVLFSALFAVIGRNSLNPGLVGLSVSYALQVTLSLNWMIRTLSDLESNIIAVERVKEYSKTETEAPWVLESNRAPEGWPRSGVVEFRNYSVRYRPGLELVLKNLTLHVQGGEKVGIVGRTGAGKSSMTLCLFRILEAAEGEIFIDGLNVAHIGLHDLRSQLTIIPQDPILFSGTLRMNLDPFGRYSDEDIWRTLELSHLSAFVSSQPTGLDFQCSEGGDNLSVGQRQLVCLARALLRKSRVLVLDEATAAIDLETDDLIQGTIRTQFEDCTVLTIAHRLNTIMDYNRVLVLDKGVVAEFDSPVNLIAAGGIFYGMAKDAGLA

c1cnc2c(c1)ccc1ncccc12
inducer []: all assays above
